Measured values from US5023338A, “Renin inhibitors” (American Home Products Corporation, priority 1990, dated 1991).

What was measured:
[1] = biological target: T1, renin (Homo sapiens, UniProt P00797); experiment: in vitro inhibition of renin, radio immunoassay detection of Angiotensin I from an angiotensinogen-like substrate; format: biochemical; conditions: 10^-6 M concentration of test compound
T1 sequence (P00797 67-406): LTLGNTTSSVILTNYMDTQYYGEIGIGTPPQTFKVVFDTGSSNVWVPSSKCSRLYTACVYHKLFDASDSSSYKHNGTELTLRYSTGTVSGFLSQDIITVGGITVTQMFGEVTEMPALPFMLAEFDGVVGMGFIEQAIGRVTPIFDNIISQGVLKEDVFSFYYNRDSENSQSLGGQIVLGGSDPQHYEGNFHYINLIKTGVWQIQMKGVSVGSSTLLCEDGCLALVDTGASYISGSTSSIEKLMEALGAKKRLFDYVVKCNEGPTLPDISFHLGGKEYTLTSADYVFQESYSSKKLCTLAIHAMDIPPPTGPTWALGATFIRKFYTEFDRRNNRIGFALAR
Source text: The potent in vitro inhibition of the aspartyl protease renin was established using standard radio immunoassay techniques for the detection of Angiotensin I from an angiotensinogen-like substrate [Haber et al. (1969), J. Clin. Endocrinol. 29, 1349]. The results of these standard test procedures appears at the end of each Example of preparation of the relevant compound, as the percent inhibition of renin activity at […] concentration of test compound. The compounds of this invention have also shown strong resistance to breakdown by degradative enzymes such as chymotrypsin, following the procedure of Thaisrivongs et al. (1987) J. Med. Chem. 30, 536-541. […] Even after a 24 hour incubation, 68% of the compound of Example 1 remained. In accord with their ability to inhibit the enzyme renin, the compounds of this invention show plasma renin lowering effects and an antihypertensive action in a furosemide-stimulated high-renin model [De […]. et al. (1985), J. Cardiovascular Pharmacology 7, (Suppl. 4), S58-S61] with conscious rhesus monkeys, utilizing intravenous as well as oral dosing. For example, the product of Example 1 administered at 5 mg/kg iv lowered plasma renin activity (PRA) from 45 ng/ml/min to 5 ng/ml/min one half hour post-administration. Mean arterial pressure (MAP) was lowered 25 mm in that time period.

[2] = resistance to breakdown on incubation with chymotrypsin; format: in vitro ADME; conditions: read-out: remaining compound after incubation with chymotrypsin; for remaining at 1 h: incubation for one hour
Source text: The potent in vitro inhibition of the aspartyl protease renin was established using standard radio immunoassay techniques for the detection of Angiotensin I from an angiotensinogen-like substrate [Haber et al. (1969), J. Clin. Endocrinol. 29, 1349]. The results of these standard test procedures appears at the end of each Example of preparation of the relevant compound, as the percent inhibition of renin activity at […] concentration of test compound. The compounds of this invention have also shown strong resistance to breakdown by degradative enzymes such as chymotrypsin, following the procedure of Thaisrivongs et al. (1987) J. Med. Chem. 30, 536-541. For example, the compound of Example 1 was nearly unchanged upon incubation with chymotrypsin for one hour (93% remaining compound) whereas Boc-Phe Leu-ACHBA-OMe was extensively degraded (22% remaining compound) in the same time period. Even after a 24 hour incubation, 68% of the compound of Example 1 remained. In accord with their ability to inhibit the enzyme renin, the compounds of this invention show plasma renin lowering effects and an antihypertensive action in a furosemide-stimulated high-renin model [De Claviere, M. et al. (1985), J. Cardiovascular Pharmacology 7, (Suppl. 4), S58-S61] with conscious rhesus monkeys, utilizing intravenous as well as oral dosing. For example, the product of Example 1 administered at 5 mg/kg iv lowered plasma renin activity (PRA) from 45 ng/ml/min to 5 ng/ml/min one half hour post-administration. Mean arterial pressure (MAP) was lowered 25 mm in that time period.

[3] = system: conscious rhesus monkeys (furosemide-stimulated high-renin model); experiment: furosemide-stimulated high-renin model with conscious rhesus monkeys; format: in vivo
[4] = orally at 50 ng/kg, one-half hour post-administration

CC(C)C[C@H](NC(=O)[C@H](Cc1ccccc1)N1C[C@@H]2CCCN2C1=O)C(=O)NC(CC1CCCCC1)C(O)C(=O)OC(C)C (stereo partly drawn) [Example 16, Beta-[[2-[[2-[(7aS)-tetrahydro-3-oxo-1H-pyrrolo[1,2-c]imidazol-2(3H)-yl]-1-oxo-3-phenylpropyl]amino]-4-methyl-1-oxo-pentyl]amino]-alpha-hydroxycyclohexanebutanoic acid 1-methylethyl ester]
% I, percent inhibition of renin activity [1]: 91%

CC(C)C[C@H](NC(=O)[C@H](Cc1ccccc1)N1Cc2ccccc2C1=O)C(=O)NC(CC1CCCCC1)C(O)C(=O)OC(C)C (single isomer, unassigned) [Example 2 Diastereomer A, Beta-[[2-[[2-[1,3-dihydro-1-oxo-2H-isoindol-2-yl]-1-oxo-3-phenylpropyl]amino]-4-methyl-1-oxo-pentyl]amino]-alpha-hydroxycyclohexanebutanoic acid 1-methylethyl ester]
% I, percent inhibition of renin activity [1]: 98%

COC(=O)C(O)C(CC1CCCCC1)NC(=O)[C@H](CC(C)C)NC(=O)[C@H](Cc1ccccc1)N1CC(C)(C)OC1=O (stereo partly drawn) [Example 10, Beta-[[2-[[2-[5,5-dimethyl-2-oxo-3-oxazolidinyl]-1-oxo-3-phenylpropyl]amino]-4-methyl-1-oxo-pentyl]amino]-alphahydroxycyclohexanebutanoic acid methyl ester]
% I, percent inhibition of renin activity [1]: 86%

COC(=O)C(O)C(CC1CCCCC1)NC(=O)[C@H](CC(C)C)NC(=O)[C@H](Cc1ccccc1)N1C(=O)OC(C)(C)C1C (stereo partly drawn) [Example 9, Beta-[[2-[[2-[4,5,5-trimethyl-2-oxo-3-oxazolidinyl]-1-oxo-3-phenylpropyl]amino]-4-methyl-1-oxo-pentyl]amino]-alphahydroxycyclohexanebutanoic acid methyl ester]
% I, percent inhibition of renin activity [1]: 76%

CC(C)C[C@H](NC(=O)[C@H](Cc1ccccc1)N1Cc2cccc3cccc(c23)C1=O)C(=O)NC(CC1CCCCC1)C(O)C(=O)OC(C)C (stereo partly drawn) [Example 13, Beta-[[2-[[2-[1,3-dihydro-1-oxo-2H-benzisoquinolin-2-yl]-1-oxo-3-phenylpropyl]amino]-4-methyl-1-oxo-pentyl]amino]-alphahydroxycyclohexanebutanoic acid 1-methylethyl ester]
% I, percent inhibition of renin activity [1]: 92%

CCCC[C@H](NC(=O)[C@H](Cc1ccccc1)N1Cc2ccccc2C1=O)C(=O)NC(CC1CCCCC1)C(O)C(=O)OC(C)C (stereo partly drawn) [Example 12, Beta-[[2-[[2-[1,3-dihydro-1-oxo-2H-isoindol-2-yl]-1-oxo-3-phenylpropyl]amino]-1-oxo-hexyl]amino]-alphahydroxycyclohexanebutanoic acid 1-methylethyl ester]
% I, percent inhibition of renin activity [1]: 99%

CC(C)C[C@H](NC(=O)[C@H](Cc1ccccc1)N1CCCC1=O)C(=O)NC(CC1CCCCC1)C(O)C(=O)OC(C)C (stereo partly drawn) [Example 14, Beta-[[2-[[2-[2-oxo-1-pyrrolidinyl]-1-oxo-3-phenylpropyl]amino]-4-methyl-1-oxo-pentyl]amino]-alpha-hydroxycyclohexanebutanoic acid 1-methylethyl ester]
% I, percent inhibition of renin activity [1]: 93%

COC(=O)C(O)C(CC1CCCCC1)NC(=O)[C@H](CC(C)C)NC(=O)[C@H](Cc1ccccc1)N1C(=O)c2cccc3cccc(c23)C1=O (some centres unmarked) [Example 8]
% I, percent inhibition of renin activity [1]: 74%

COC(=O)C(O)C(CC1CCCCC1)NC(=O)[C@H](CC(C)C)NC(=O)[C@H](Cc1ccccc1)N1C(=O)c2ccccc2C1=O (stereo partly drawn) [Example 6, Beta-[[2-[[2-(1,3-dihydro-1,3-dioxo-2H-isoindol-2-yl)-1-oxo-3-phenylpropyl]amino]-4-methyl-1-oxopentyl]amino]-alphahydroxycyclohexanebutanoic acid methyl ester]
% I, percent inhibition of renin activity [1]: 45%

COC(=O)C(O)C(CC1CCCCC1)NC(=O)[C@H](CC(C)C)NC(=O)[C@H](Cc1ccccc1)NC(=O)OC(C)(C)C (stereo partly drawn) [Boc-Phe Leu-ACHBA-OMe, N-tertiary butyloxycarbonyl-Phe-Leu-3-amino-4-cyclohexyl-2-hydroxybutanoic acid methyl ester, reference compound]
remaining at 1 h [2]: 22%

COC(=O)C(O)C(CC1CCCCC1)NC(=O)[C@H](CC(C)C)NC(=O)[C@H](Cc1ccccc1)N1Cc2ncccc2C1=O (stereo partly drawn) [Example 3, Beta-[[2-[[-2-(1,3-dihydro-1-oxo-2H-pyrrolo[3,4-b]pyridin-2-yl)-1-oxo-3-phenylpropyl]amino]-4-methyl-1-oxopentyl]amino]-alpha-hydroxycyclohexanebutanoic acid methyl ester]
% I, percent inhibition of renin activity [1]: 89%

COC(=O)C(O)C(CC1CCCCC1)NC(=O)[C@H](Cc1c[nH]cn1)NC(=O)[C@H](Cc1ccccc1)N1C(=O)c2ccccc2C1=O (stereo partly drawn) [Example 7, Beta-[[2-[[2-(1,3-dihydro-1,3-dioxo-2H-isoindol-2-yl)-1-oxo-3-phenylpropyl]amino]-3-(1H-imidazol-4-yl)-1-oxopropyl]amino]-alphahydroxycyclohexanebutanoic acid methyl ester]
% I, percent inhibition of renin activity [1]: 9%

Beta-[[2-[[2-[5-oxo-5H-imidazo[1,2-a]imidazol-6(7H)-yl]-1-oxo-3-phenylpropyl]amino]-4-methyl-1-oxo-pentyl]amino]-alpha-hydroxycyclohexanebutanoic acid 1-methylethyl ester [Example 15]
% I, percent inhibition of renin activity [1]: 96%

COC(=O)C(O)C(CC1CCCCC1)NC(=O)[C@H](CC(C)C)NC(=O)[C@H](Cc1ccccc1)N1Cc2ccccc2C1=O (stereo partly drawn) [Example 1, Beta-[[2-[[2-[1,3-dihydro-1-oxo-2H-isoindol-2-yl]-1-oxo-3-phenylpropyl]amino]-4-methyl-1-oxo-pentyl]amino]-alpha-hydroxycyclohexanebutanoic acid methyl ester]
remaining at 24 h ([2]; 24 hour incubation): 68%
remaining at 1 h [2]: 93%
lowering of mean arterial pressure (MAP) ([3]; 5 mg/kg iv, one half hour post-administration): 25 mm
plasma renin activity (PRA) after administration ([3]; 5 mg/kg iv, one half hour post-administration, lowered from 45 ng/ml/min): 5 ng/mL/min
change in MAP [3, 4]: no significant change
decrease of PRA [3, 4]: 50%
% I, percent inhibition of renin activity [1]: 97%

CCC[C@H](NC(=O)[C@H](Cc1ccccc1)N1Cc2ccccc2C1=O)C(=O)NC(CC1CCCCC1)C(O)C(=O)OC(C)C (stereo partly drawn) [Example 11, Beta-[[2-[[2-[1,3-dihydro-1-oxo-2H-isoindol-2-yl]-1-oxo-3-phenylpropyl]amino]-1-oxo-pentyl]amino]-alphahydroxycyclohexanebutanoic acid 1-methylethyl ester]
% I, percent inhibition of renin activity [1]: 99%

CC(C)OC(=O)C(O)C(CC1CCCCC1)NC(=O)[C@H](Cc1c[nH]cn1)NC(=O)[C@H](Cc1ccccc1)N1Cc2ccccc2C1=O (stereo partly drawn) [Example 5, Beta-[[2-[[2-(1,3-dihydro-1-oxo-2H-isoindol-2-yl)-1-oxo-3-phenylpropyl]amino]-3-(1H-imidazol-4-yl)-1-oxopropyl]amino]-alphahydroxycyclohexanebutanoic acid 1-methylethyl ester]
% I, percent inhibition of renin activity [1]: 83%

COC(=O)C(O)C(CC1CCCCC1)NC(=O)[C@H](Cc1c[nH]cn1)NC(=O)[C@H](Cc1ccccc1)N1Cc2ccccc2C1=O (stereo partly drawn) [Example 4, Beta-[[2-[[2-(1,3-dihydro-1-oxo-2H-isoindol-2-yl)-1-oxo-3-phenylpropyl]amino]-3-(1H-imidazol-4-yl)-1-oxopropyl]amino]-alpha-hydroxycyclohexane butanoic acid methyl ester]
% I, percent inhibition of renin activity [1]: 84%
